Data as given in the OligoGym collection.
After the bases stand the sugars from the 5' end (letter, count) and the backbone: PS all phosphorothioate, else s phosphorothioate and o phosphodiester by linkage. Methylation of C is not given here. e = 2'-O-(2-methoxyethyl) (MOE); k = constrained ethyl (cEt); d = 2'-deoxy (DNA); m = 2'-O-methyl

Target: HSD17B13
Conditions: ASO, HepaRG

Sequence GATTGGAATGCTACTT (sugars k3 d10 k3, PS) has a target mRNA inhibition (1 µM) of 58%.
“GATTGGAATGCTACTT (sugars kkkddddkddddkkke, PS)” gave a target mRNA inhibition (1 µM) of 59%.
In the case of GATTTAGTTGGTAGCT (sugars k3 d10 k3, PS), the target mRNA inhibition (1 µM) is reported as 63%.
In the case of GCAAAGATCTGGCCAG (sugars k3 d10 k3, PS), the target mRNA inhibition (1 µM) is reported as 22%.
Sequence “GCAAGCCAACAGAGAG (sugars kkdddddddddkekek, PS)” has a target mRNA inhibition (1 µM) of 12%.
GCAAGGATACCTGAAA (sugars k3 d10 k3, PS) was tested, and the target mRNA inhibition (1 µM) was 67%.
In the case of “GCACCGTTTTGGGCTA (sugars k3 d1 m1 d8 k3, PS)”, the target mRNA inhibition (1 µM) is reported as 67%.
GCACTAAAGGTTTCTG (sugars k3 d10 k3, PS) showed a target mRNA inhibition (0.02 µM) of 24%, a target mRNA inhibition (0.078 µM) of 39% and a target mRNA inhibition (0.313 µM) of 58%. For the same sequence, the target mRNA inhibition (1 µM) was 75%, the target mRNA inhibition (1.25 µM) was 79% and the target mRNA inhibition (5 µM) was 90%.
GCAGAGACATGAGGTT (sugars k3 d10 k3, PS) showed a target mRNA inhibition (1 µM) of 55%.
GCAGCTAAAATCCAAT (sugars k3 d10 k3, PS) showed a target mRNA inhibition (1 µM) of 70%.
“GCAGTTATTAGAAGTC (sugars kkdddddddddkekek, PS)” showed a target mRNA inhibition (1 µM) of 68%.
With “GCAGUTATTAGAAGTC (sugars k3 d1 m1 d8 k3, PS)” the target mRNA inhibition (1 µM) was 59%.
Work on GCATAAGAGATGAGTA (sugars k3 d10 k3, PS) yielded a target mRNA inhibition (1 µM) of 33%.
GCATCTTAAGATACCC (sugars k3 d10 k3, PS) was tested, and the target mRNA inhibition (0.02 µM) was 16%, the target mRNA inhibition (0.078 µM) was 45% and the target mRNA inhibition (0.313 µM) was 82%. It also gave a target mRNA inhibition (1 µM) of 82%, a target mRNA inhibition (1.25 µM) of 89% and a target mRNA inhibition (5 µM) of 97%.
For “GCATCTTAAGATACCC (sugars kkdddddddddkekek, PS)”, the target mRNA inhibition (1 µM) was 41%.
“GCATGGCTACAGATTG (sugars k3 d9 k3 e1, PS)” was tested, and the target mRNA inhibition (1 µM) was 67%.
Work on GCATTAAAACTCTCAT (sugars k3 d10 k3, PS) yielded a target mRNA inhibition (1 µM) of 35%.
With “GCATTAATGCCACCCT (sugars k3 d9 k3 e1, PS)” the target mRNA inhibition (1 µM) was 51%.
Work on GCATTATTCACCACGA (sugars k3 d10 k3, PS) yielded a target mRNA inhibition (1 µM) of 59%.
For GCATTGAAAAGATGTA (sugars k3 d10 k3, PS), the target mRNA inhibition (1 µM) was 0%.
GCATTGATTCGAAACT (sugars k3 d10 k3, PS) showed a target mRNA inhibition (1 µM) of 66%.
With GCATTGTAATCTTGAG (sugars k3 d10 k3, PS) the target mRNA inhibition (1 µM) was 35%.
For GCCAACAGCGGCAAAT (sugars k3 d10 k3, PS), the target mRNA inhibition (1 µM) was 30%.
GCCAAGGGAACACTGT (sugars k3 d10 k3, PS) showed a target mRNA inhibition (1 µM) of 61%.
For GCCAGGGAATGCTCAT (sugars k3 d10 k3, PS), the target mRNA inhibition (1 µM) was 38%.
GCCATAATCTGTGATT (sugars k3 d10 k3, PS) gave a target mRNA inhibition (1 µM) of 0%.
For GCCCTAGATTCTACAC (sugars k3 d10 k3, PS), the target mRNA inhibition (1 µM) was 15%.
GCCTAAACAAACACTA (sugars k3 d10 k3, PS) gave a target mRNA inhibition (1 µM) of 37%.
“GCCTTGAATAGCAAGC (sugars kkdddddddddkekek, PS)” showed a target mRNA inhibition (1 µM) of 16%.
GCCTTTTAACTACCCT (sugars k3 d10 k3, PS) showed a target mRNA inhibition (1 µM) of 0%.
GCTAAAAGCTCACCAA (sugars k3 d10 k3, PS) showed a target mRNA inhibition (1 µM) of 26%.
For GCTAAACCCTGGAGCA (sugars k3 d10 k3, PS), the target mRNA inhibition (1 µM) was 5%.
Sequence GCTACAGATTGGAATG (sugars k3 d10 k3, PS) has a target mRNA inhibition (1 µM) of 47%.
GCTACTTGAACAGTCT (sugars k3 d10 k3, PS) gave a target mRNA inhibition (1 µM) of 66%.
For GCTAGGGAAATCTTTC (sugars k3 d10 k3, PS), the target mRNA inhibition (1 µM) was 66%.
In the case of “GCTAGTGCCAAACCAA (sugars k3 d1 m1 d8 k3, PS)”, the target mRNA inhibition (1 µM) is reported as 65%.
GCTAGTGCCAAACCAA (sugars k3 d10 k3, PS) showed a target mRNA inhibition (0.02 µM) of 0%, a target mRNA inhibition (0.078 µM) of 8% and a target mRNA inhibition (0.313 µM) of 39%. It also gave a target mRNA inhibition (1 µM) of 70%, a target mRNA inhibition (1.25 µM) of 65% and a target mRNA inhibition (5 µM) of 87%.
